Laboratory results published in patent US9096595B2, “7-(heteroaryl-amino)-6,7,8,9-tetrahydropyrido[1,2-a]indol acetic acid derivatives and their use as prostaglandin D2 receptor modulators” (Actelion Pharmaceuticals Ltd, priority 2011, dated 2015).

Assays:
hCRTH2 receptor [1] = target: T1, hCRTH2 receptor (Homo sapiens (Human), UniProt Q9Y5Y4); experiment: Radioligand displacement assay in presence of human serum albumin (HSA); details: 3H-PGD2 2.5 nM, HEK293-hCRTH2 membrane fragments, Binding-Buffer-HSA with 0.5% human serum albumin instead of 0.1% BSA
T1 sequence (Q9Y5Y4 whole entry, the tested form may be a part): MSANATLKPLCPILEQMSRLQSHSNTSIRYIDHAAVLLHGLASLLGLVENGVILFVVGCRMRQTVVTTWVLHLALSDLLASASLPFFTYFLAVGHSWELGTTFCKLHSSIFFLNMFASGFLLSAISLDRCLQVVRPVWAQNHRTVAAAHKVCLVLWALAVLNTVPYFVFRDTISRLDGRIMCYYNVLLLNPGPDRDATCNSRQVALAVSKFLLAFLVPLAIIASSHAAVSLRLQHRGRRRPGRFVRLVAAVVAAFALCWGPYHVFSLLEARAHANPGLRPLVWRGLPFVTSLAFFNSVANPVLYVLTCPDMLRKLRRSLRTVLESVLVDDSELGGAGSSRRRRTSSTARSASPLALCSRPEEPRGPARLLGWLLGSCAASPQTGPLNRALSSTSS
Experimental: (§1) First, recombinant HEK293-hCRTH2 cells were detached from culture plates into 5 ml buffer A/plate (Buffer A: 5 mM Tris, 1 mM MgCl2-6H2O pH=7.4) using a rubber policeman. Cells were then transferred into centrifugation tubes and centrifuged for 5 min at 400 g. The cell pellet was resuspended in the same buffer and tubes were frozen at −80° C. Cells were thawed and membrane fragments were generated by homogenization using a polytron homogenizer (30 seconds). The membrane fragments were then centrifuged at 3000 g for 20 minutes and resuspended in buffer C (Buffer C: 75 mM Tris, 25 mM MgCl2, 250 mM Saccharose pH 7.4). Aliquots of membrane fragments were stored at −20° C.
(§2) Binding assay was performed in a final assay volume of 250 μl. First, 25 μl of test compound, previously diluted in Binding-Buffer (Binding-Buffer: 50 mM Tris-Base, 100 mM NaCl, 1 mM EDTA, 0.1% BSA (protease free), 0.01% NaN3, 10 mM MnCl2 pH 7.0) was placed into each well. After addition of 75 μl Binding-Buffer, 50 μl of the radioligand ^3H-PGD2 (at 2.5 nM (220.000 dpm/well) from ANAWA ART0662) was added to each well. Binding assay was started by addition of 100 μl CRTH2 membrane fragments, reaching a final concentration of 20 μg/well. For non-specific binding, PGD2 was added to the reaction mixture to […] final concentration. This assay mix was incubated for 90 minutes at room temperature and then filtered through a GF/C filter 96-well plate which was pre-soaked for 3 hours in 0.5% polyethyleneimine (PEI). The filter-wells were washed three times with ice cold Binding-Buffer. Then, 40 μl of Microscint-40 (Packard) was added to each well and the retained radioactivity quantified in a Topcount (Packard).
Radioligand displacement assay in presence of human serum albumin (HSA) was performed as described above, with following modifications. Binding-Buffer-HSA: Binding-buffer+0.5% Sigma Albumin from Human serum A1887 (instead of 0.1% BSA). A volume of 25 μl test compound, previously diluted in Binding-Buffer-HSA was placed into each well. After addition of 75 μl Binding-Buffer-HSA, 50 μl of ^3H-PGD2 (at 2.5 nM (220.000 dpm/well) from ANAWA ART0662) was added to each well. Remaining protocol was identical as described above.

hCRTH2 receptor [2] = target: T1, hCRTH2 receptor; experiment: hCRTH2 receptor membranes radioligand (3H-PGD2) displacement assay; details: 3H-PGD2 2.5 nM, HEK293-hCRTH2 membrane fragments, Binding-Buffer with 0.1% BSA
Experimental: as §1, §2

CN(c1nc2ccc(F)cc2o1)C1CCc2c(CC(=O)O)c3ccc(F)cc3n2C1 (stereo not drawn) [Example 20, 2-(3-fluoro-7-((6-fluorobenzo[d]oxazol-2-yl)(methyl)amino)-6,7,8,9-tetrahydropyrido[1,2-a]indol-10-yl)acetic acid]
IC50 (hCRTH2 receptor [1]): 20 nM
IC50 (hCRTH2 receptor [2]): 1 nM

CN(c1ncc(Cl)cn1)C1CCc2c(CC(=O)O)c3ccc(Cl)cc3n2C1 (stereo not drawn) [Example 21, 2-(3-chloro-7-((5-chloropyrimidin-2-yl)(methyl)amino)-6,7,8,9-tetrahydropyrido[1,2-a]indol-10-yl)acetic acid]
IC50 (hCRTH2 receptor [1]): 31 nM
IC50 (hCRTH2 receptor [2]): 7 nM

CN(c1ncc(F)cn1)C1CCc2c(CC(=O)O)c3cc(F)ccc3n2C1 (stereo not drawn) [Example 7, 2-(2-fluoro-7-((5-fluoropyrimidin-2-yl)(methyl)amino)-6,7,8,9-tetrahydropyrido[1,2-a]indol-10-yl)acetic acid]
IC50 (hCRTH2 receptor [1]): 119 nM
IC50 (hCRTH2 receptor [2]): 17 nM

O=C(O)Cc1c2n(c3cc(Cl)ccc13)CC(N(CC(F)F)c1nc3cc(F)ccc3o1)CC2 (stereo not drawn) [Example 44, 2-(3-chloro-7-((2,2-difluoroethyl)(5-fluorobenzo[d]oxazol-2-yl)amino)-6,7,8,9-tetrahydropyrido[1,2-a]indol-10-yl)acetic acid]
IC50 (hCRTH2 receptor [1]): 6 nM
IC50 (hCRTH2 receptor [2]): 3 nM

CC(C)CN(c1nc2cc(F)ccc2o1)C1CCc2c(CC(=O)O)c3ccc(Cl)cc3n2C1 (stereo not drawn) [Example 48, 2-(3-chloro-7-((5-fluorobenzo[d]oxazol-2-yl)(isobutyl)amino)-6,7,8,9-tetrahydropyrido[1,2-a]indol-10-yl)acetic acid]
IC50 (hCRTH2 receptor [1]): 6 nM
IC50 (hCRTH2 receptor [2]): 2 nM

O=C(O)Cc1c2n(c3cc(F)ccc13)CC(Nc1ncc(F)cn1)CC2 (stereo not drawn) [Example 34, 2-(3-fluoro-7-((5-fluoropyrimidin-2-yl)amino)-6,7,8,9-tetrahydropyrido[1,2-a]indol-10-yl)acetic acid]
IC50 (hCRTH2 receptor [1]): 304 nM
IC50 (hCRTH2 receptor [2]): 9 nM

CN(c1cnc2cc(F)ccc2n1)C1CCc2c(CC(=O)O)c3ccc(Cl)cc3n2C1 (stereo not drawn) [Example 43, 2-(3-chloro-7-((6-fluoroquinoxalin-2-yl)(methyl)amino)-6,7,8,9-tetrahydropyrido[1,2-a]indol-10-yl)acetic acid]
IC50 (hCRTH2 receptor [1]): 12 nM
IC50 (hCRTH2 receptor [2]): 2 nM

CN(c1nc2cc(F)ccc2s1)C1CCc2c(CC(=O)O)c3ccccc3n2C1 (stereo not drawn) [Example 6, 2-(7-((5-fluorobenzo[d]thiazol-2-yl)(methyl)amino)-6,7,8,9-tetrahydropyrido[1,2-a]indol-10-yl)acetic acid]
IC50 (hCRTH2 receptor [1]): 59 nM
IC50 (hCRTH2 receptor [2]): 92 nM

CN(c1nc2cc(F)ccc2o1)C1CCc2c(CC(=O)O)c3ccccc3n2C1 (stereo not drawn) [Example 5, 2-(7-((5-fluorobenzo[d]oxazol-2-yl)(methyl)amino)-6,7,8,9-tetrahydropyrido[1,2-a]indol-10-yl)acetic acid]
IC50 (hCRTH2 receptor [1]): 24 nM
IC50 (hCRTH2 receptor [2]): 16 nM

CN(c1nc2cc(F)ccc2o1)C1CCc2c(CC(=O)O)c3ccc(F)cc3n2C1 (stereo not drawn) [Example 10, 2-(3-fluoro-7-((5-fluorobenzo[d]oxazol-2-yl)(methyl)amino)-6,7,8,9-tetrahydropyrido[1,2-a]indol-10-yl)acetic acid]
IC50 (hCRTH2 receptor [1]): 7 nM
IC50 (hCRTH2 receptor [2]): 0.7 nM

CN(c1ncc2cc(F)ccc2n1)C1CCc2c(CC(=O)O)c3ccc(Cl)cc3n2C1 (stereo not drawn) [Example 40, 2-(3-chloro-7-((6-fluoroquinazolin-2-yl)(methyl)amino)-6,7,8,9-tetrahydropyrido[1,2-a]indol-10-yl)acetic acid]
IC50 (hCRTH2 receptor [1]): 4 nM
IC50 (hCRTH2 receptor [2]): 5 nM

O=C(O)Cc1c2n(c3cc(Cl)ccc13)CC(N(CC1CC1)c1ncc(F)cn1)CC2 (stereo not drawn) [Example 51, 2-(3-chloro-7-((cyclopropylmethyl)(5-fluoropyrimidin-2-yl)amino)-6,7,8,9-tetrahydropyrido[1,2-a]indol-10-yl)acetic acid]
IC50 (hCRTH2 receptor [1]): 9 nM
IC50 (hCRTH2 receptor [2]): 0.6 nM

CN(c1ncc(F)cn1)C1CCc2c(CC(=O)O)c3ccccc3n2C1 (stereo not drawn) [Example 2, 2-(7-((5-fluoropyrimidin-2-yl)(methyl)amino)-6,7,8,9-tetrahydropyrido[1,2-a]indol-10-yl)acetic acid]
IC50 (hCRTH2 receptor [1]): 29 nM
IC50 (hCRTH2 receptor [2]): 9 nM

Cc1cnc(N(C)C2CCc3c(CC(=O)O)c4ccc(Cl)cc4n3C2)nc1 (stereo not drawn) [Example 38, 2-(3-chloro-7-(methyl(5-methylpyrimidin-2-yl)amino)-6,7,8,9-tetrahydropyrido[1,2-a]indol-10-yl)acetic acid]
IC50 (hCRTH2 receptor [1]): 246 nM
IC50 (hCRTH2 receptor [2]): 2 nM

CCCN(c1ncc(F)cn1)C1CCc2c(CC(=O)O)c3ccc(Cl)cc3n2C1 (stereo not drawn) [Example 49, 2-(3-chloro-7-((5-fluoropyrimidin-2-yl)(propyl)amino)-6,7,8,9-tetrahydropyrido[1,2-a]indol-10-yl)acetic acid]
IC50 (hCRTH2 receptor [1]): 21 nM
IC50 (hCRTH2 receptor [2]): 1 nM

CCN(c1nc2cc(F)ccc2o1)C1CCc2c(CC(=O)O)c3ccc(Cl)cc3n2C1 (stereo not drawn) [Example 50, 2-(3-chloro-7-(ethyl(5-fluorobenzo[d]oxazol-2-yl)amino)-6,7,8,9-tetrahydropyrido[1,2-a]indol-10-yl)acetic acid]
IC50 (hCRTH2 receptor [1]): 9 nM
IC50 (hCRTH2 receptor [2]): 1 nM

CN(c1nc2cc(F)ccc2o1)C1CCc2c(CC(=O)O)c3cc(Cl)ccc3n2C1 (stereo not drawn) [Example 16, 2-(2-chloro-7-((5-fluorobenzo[d]oxazol-2-yl)(methyl)amino)-6,7,8,9-tetrahydropyrido[1,2-a]indol-10-yl)acetic acid]
IC50 (hCRTH2 receptor [1]): > 1000 nM
IC50 (hCRTH2 receptor [2]): 21 nM

CN(c1ncc(Cl)cn1)C1CCc2c(CC(=O)O)c3ccc(C(F)(F)F)cc3n2C1 (stereo not drawn) [Example 22, 2-(7-((5-chloropyrimidin-2-yl)(methyl)amino)-3-(trifluoromethyl)-6,7,8,9-tetrahydropyrido[1,2-a]indol-10-yl)acetic acid]
IC50 (hCRTH2 receptor [1]): 38 nM
IC50 (hCRTH2 receptor [2]): 9 nM

CN(c1ncc(C(F)(F)F)cn1)C1CCc2c(CC(=O)O)c3ccc(F)cc3n2C1 (stereo not drawn) [Example 18, 2-(3-fluoro-7-(methyl(5-(trifluoromethyl)pyrimidin-2-yl)amino)-6,7,8,9-tetrahydropyrido[1,2-a]indol-10-yl)acetic acid]
IC50 (hCRTH2 receptor [1]): 71 nM
IC50 (hCRTH2 receptor [2]): 6 nM

CN(c1ncc(Cl)cn1)C1CCc2c(CC(=O)O)c3ccccc3n2C1 (stereo not drawn) [Example 1, 2-(7-((5-chloropyrimidin-2-yl)(methyl)amino)-6,7,8,9-tetrahydropyrido[1,2-a]indol-10-yl)acetic acid]
IC50 (hCRTH2 receptor [1]): 66 nM
IC50 (hCRTH2 receptor [2]): 21 nM

CN(c1ncc(Cl)cn1)C1CCc2c(CC(=O)O)c3ccc(F)cc3n2C1 (stereo not drawn) [Example 17, 2-(7-((5-chloropyrimidin-2-yl)(methyl)amino)-3-fluoro-6,7,8,9-tetrahydropyrido[1,2-a]indol-10-yl)acetic acid]
IC50 (hCRTH2 receptor [1]): 46 nM
IC50 (hCRTH2 receptor [2]): 4 nM
